Legend:
Format in all cases: cell-based
[1] = target: T1, rat mGlu5 (HEK293A-rat mGlu5-low) (Rattus norvegicus, UniProt P31424); assay: IP1 accumulation
[2] = target: T1, rat mGlu5 (HEK293A-rat mGlu5-low); assay: [3H]methoxy-PEPy inhibition binding, intact adherent cells
[3] = target: T1, rat mGlu5 (HEK293A-rat mGlu5-low); assay: radioligand binding, intact adherent cells; details: labelled compound, ~2 nM, RT, 1 h, pH 7.4; allosteric site

T1 sequence (P31424 21-1203): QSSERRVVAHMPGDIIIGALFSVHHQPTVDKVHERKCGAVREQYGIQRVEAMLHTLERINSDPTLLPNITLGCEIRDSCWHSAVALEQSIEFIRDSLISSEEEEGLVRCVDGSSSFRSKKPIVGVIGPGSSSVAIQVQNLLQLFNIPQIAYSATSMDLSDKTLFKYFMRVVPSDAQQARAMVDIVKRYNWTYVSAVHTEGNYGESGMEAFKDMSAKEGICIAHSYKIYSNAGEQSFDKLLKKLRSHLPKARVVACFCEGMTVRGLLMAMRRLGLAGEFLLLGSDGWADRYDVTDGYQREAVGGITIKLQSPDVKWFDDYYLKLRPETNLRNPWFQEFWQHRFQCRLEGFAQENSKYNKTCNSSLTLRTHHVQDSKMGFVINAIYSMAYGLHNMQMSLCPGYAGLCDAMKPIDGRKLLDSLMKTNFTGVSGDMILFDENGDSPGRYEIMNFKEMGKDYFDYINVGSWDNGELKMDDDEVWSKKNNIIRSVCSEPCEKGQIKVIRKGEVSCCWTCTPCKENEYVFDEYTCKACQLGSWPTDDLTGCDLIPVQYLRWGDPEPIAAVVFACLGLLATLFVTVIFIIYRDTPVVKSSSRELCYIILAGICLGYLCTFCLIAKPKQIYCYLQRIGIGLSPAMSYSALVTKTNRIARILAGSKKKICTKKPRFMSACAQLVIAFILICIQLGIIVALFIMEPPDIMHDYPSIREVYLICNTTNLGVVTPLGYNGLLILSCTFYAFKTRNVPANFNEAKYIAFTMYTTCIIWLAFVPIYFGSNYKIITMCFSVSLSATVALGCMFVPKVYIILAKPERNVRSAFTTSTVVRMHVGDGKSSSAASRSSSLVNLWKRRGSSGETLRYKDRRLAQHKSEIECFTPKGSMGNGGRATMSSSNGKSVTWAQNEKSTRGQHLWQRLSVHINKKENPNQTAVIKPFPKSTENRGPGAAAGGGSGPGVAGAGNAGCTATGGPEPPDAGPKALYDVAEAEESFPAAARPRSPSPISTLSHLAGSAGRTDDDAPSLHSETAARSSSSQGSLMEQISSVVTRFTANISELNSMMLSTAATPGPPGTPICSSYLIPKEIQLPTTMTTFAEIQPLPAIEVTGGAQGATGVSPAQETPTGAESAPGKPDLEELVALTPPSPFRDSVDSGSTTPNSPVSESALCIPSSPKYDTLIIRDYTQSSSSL

Row | Compound | IC50 [1] [nM] | Ki [2] [nM] | radioligand binding, intact adherent cells [3]
1 | COc1cccc(C#Cc2ccc(C)cn2)c1 [M-5MPEP, 2-[2-(3-methoxyphenyl)ethynyl]-5-methylpyridine] | 295 | 74.1 | –
2 | N#Cc1cnc(Nc2nc3ccccc3o2)nc1-c1ccc(F)cc1 [VU0366058, 2-(1,3-benzoxazol-2-ylamino)-4-(4-fluorophenyl)pyrimidine-5-carbonitrile] | 105 | 55 | –
3 | N#Cc1cc(F)cc(C(=O)Nc2cccc(Cl)c2F)c1 [VU0366248, N-(3-chloro-2-fluorophenyl)-3-cyano-5-fluorobenzamide] | 331 | 115 | –
4 | COc1cncc(C#Cc2ccccn2)c1 [[^3H]methoxy-PEPy] | – | – | inhibition of [^3H]methoxy-PEPy binding was determined in HEK293A-rat mGlu5-low cells
5 | Fc1ccc2nc(CCC#Cc3ccccn3)cn2c1 [dipraglurant, 6-fluoro-2-[4-(2-pyridinyl)-3-butyn-1-yl]-Imidazo[1,2-a]pyridine] | 43.7 | 49 | –
6 | CN1CC(=O)N=C1NC(=O)Nc1cccc(Cl)c1 [fenobam, 1-(3-chlorophenyl)-3-[(2e)-1-methyl-4-oxoimidazolidin-2-ylidene]urea] | 148 | 70.8 | –

Source: article PMC6420870 (Neuropharmacology, 2019)
